Data on two molecules can be found in patent US7091026B2, “Artificial endonuclease” (University of Iowa Research Foundation, priority 2001, dated 2006).

The test system of test [1] is supercoiled pBR322 plasmid DNA. The experiment in a line: DNA gel shift assay (agarose gel electrophoresis). Type of test: binding. The note with it: 5–25 μM ligand, in words. How it is done:
DNA Gel Shift Assays. The affinity of EuP3, EuP2, and each free peptide for supercoiled plasmid DNA was examined by agarose gel electrophoresis. Plasmid (pBR322, New England Biolabs, Inc.) was incubated for 15 minutes at room temperature with increasing concentrations of each ligand (5–25 μM), prior to the addition of loading dye. Each lane contained 1 μg plasmid (50 μM base pairs) in 10 mM Tris buffer at pH 8.0.

In test [2] the target is P4a (34-residue synthetic chimeric peptide: alpha2 and alpha3 of engrailed, minus the last turn of alpha2 and the beta-turn, with calmodulin loop I). The experiment in a line: measured dissociation constant, method not stated; self-association of the Eu-bound peptide.

Where no end group is shown, it is not given here.

Regarding `[Cl][Eu]([Cl])[Cl]` [EuCl3], the “gel shift / affinity for supercoiled plasmid DNA” value is on record as “not” in test [1] and “not seen” in test [1] (listed as free metal).

Consider TERRRFDKDGNGYISAAELRHVKIWFQNKRAKIK (also: also used as Eu(III)-bound form (EuP4a)), for which the Kdim (dimerization constant) in test [2] is above 300 µM.
